We go through 10 compounds from patent US8404708B2, “Dual NK1/NK3 receptor antagonists” (Hoffmann-La Roche Inc., priority 2004, dated 2013).

Usually melting point stands for the temperature, or range, at which the solid turns liquid.

The target of series [1] is T1, Recombinant human NK3 (hNK3) receptor (Homo sapiens, UniProt P29371).
T1 construct: expressed in transfected cells
T1 sequence (P29371 1-465): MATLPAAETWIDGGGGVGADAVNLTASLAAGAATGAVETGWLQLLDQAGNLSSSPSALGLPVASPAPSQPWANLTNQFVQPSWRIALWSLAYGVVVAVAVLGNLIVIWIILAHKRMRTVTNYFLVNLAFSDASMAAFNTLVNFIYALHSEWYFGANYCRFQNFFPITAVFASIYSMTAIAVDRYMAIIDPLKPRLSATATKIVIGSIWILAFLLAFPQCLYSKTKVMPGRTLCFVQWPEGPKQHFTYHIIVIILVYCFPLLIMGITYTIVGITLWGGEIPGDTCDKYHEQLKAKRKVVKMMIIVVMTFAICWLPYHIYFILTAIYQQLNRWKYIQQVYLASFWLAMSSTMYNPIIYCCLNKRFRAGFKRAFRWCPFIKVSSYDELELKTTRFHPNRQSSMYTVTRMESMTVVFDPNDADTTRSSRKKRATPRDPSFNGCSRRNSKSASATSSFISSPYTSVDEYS
Kind of series: NK3 receptor binding, [3H]SR142801 displacement, membrane preparations. The following applies: for Ki: read-out: pKi NK3 (converted). In outline: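 Buffer: Tris-HCl 50 mM pH 7.4, BSA 0.1%, MnCl2 4 mM, phosphoramidon 1 μM. ~2.5 μg membrane/well, 90 min RT. NSB with SB222200 (10 μM). Vacuum filtration over 0.3% PEI-treated GF/C, cold Tris/BSA washes, scintillation count; duplicates, ≥2 experiments.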

For another series, the target named is human NK1 receptor (Homo sapiens, UniProt P25103). As to the kind of experiment: NK1 receptor binding, [3H]substance P displacement, CHO cell membranes. To be noted: first value of the cell NK1/NK3; read-out: pKi NK1 (converted).
The conditions of series [2]: phase II trial, cited from earlier work.
Where [3] appears, read: second value of the cell NK1/NK3.

human NK1 receptor, sequence (P25103 whole entry): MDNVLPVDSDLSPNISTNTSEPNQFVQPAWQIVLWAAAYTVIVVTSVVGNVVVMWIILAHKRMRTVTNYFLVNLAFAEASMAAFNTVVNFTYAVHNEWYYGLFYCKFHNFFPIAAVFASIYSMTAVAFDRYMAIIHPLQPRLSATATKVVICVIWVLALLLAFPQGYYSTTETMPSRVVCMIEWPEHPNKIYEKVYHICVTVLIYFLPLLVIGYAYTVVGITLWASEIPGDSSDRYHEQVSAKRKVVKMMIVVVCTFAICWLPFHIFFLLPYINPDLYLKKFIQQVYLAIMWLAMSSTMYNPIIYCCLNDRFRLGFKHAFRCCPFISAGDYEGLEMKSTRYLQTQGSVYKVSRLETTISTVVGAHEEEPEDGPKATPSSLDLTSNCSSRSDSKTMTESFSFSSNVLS

On to `CN(C(=O)C(C)(C)c1cc(C(F)(F)F)cc(C(F)(F)F)c1)c1cnc(NCCO)cc1-c1ccccc1Cl` [Example 67, 2-(3,5-Bis-trifluoromethyl-phenyl)-N-[4-(2-chloro-phenyl)-6-(2-hydroxy-ethylamino)-pyridin-3-yl]-N-methyl-isobutyramide], for which the melting point lay in the range of 117 to 118 °C. Moreover, the “pKi NK3” value in series [1] (second value of the cell pKi NK1/NK3, hNK3 receptor, [3H]SR142801) was 7.94.
Consider `Cc1cc(F)ccc1-c1cc(N2CC(=O)C[C@H]2CO)ncc1N(C)C(=O)C(C)(C)c1cc(C(F)(F)F)cc(C(F)(F)F)c1` [Example 296, (S)-2-(3,5-Bis-trifluoromethyl-phenyl)-N-[4-(4-fluoro-2-methyl-phenyl)-6-(2-hydroxymethyl-4-oxo-pyrrolidin-1-yl)-pyridin-3-yl]-N-methyl-isobutyramide], for which the Ki is 2.51 nM at human NK1 receptor and 1.74 nM in series [1] (setting [3]).
As for `Cc1ccccc1-c1cc(N2C[C@@H](F)C[C@H]2CO)ncc1N(C)C(=O)C(C)(C)c1cc(C(F)(F)F)cc(C(F)(F)F)c1` [Example 297, (2S,4S)-2-(3,5-Bis-trifluoromethyl-phenyl)-N-[6-(4-fluoro-2-hydroxymethyl-pyrrolidin-1-yl)-4-o-tolyl-pyridin-3-yl]-N-methyl-isobutyramide], the Ki at human NK1 receptor was 2.88 nM; in series [1] (setting [3]), 1.32 nM.
On to `Cc1cc(F)ccc1-c1cc(N2C[C@@H](F)C[C@H]2CO)ncc1N(C)C(=O)C(C)(C)c1cc(C(F)(F)F)cc(C(F)(F)F)c1` [Example 298, (2S,4S)-2-(3,5-Bis-trifluoromethyl-phenyl)-N-[6-(4-fluoro-2-hydroxymethyl-pyrrolidin-1-yl)-4-(4-fluoro-2-methyl-phenyl)-pyridin-3-yl]-N-methyl-isobutyramide], for which the Ki at human NK1 receptor was 1.55 nM. Further, in series [1] (setting [3]), the pKi NK3 was 9.15.
Consider `Cc1ccccc1-c1cc(N2CC(F)(F)C[C@H]2CO)ncc1N(C)C(=O)C(C)(C)c1cc(C(F)(F)F)cc(C(F)(F)F)c1` [Example 299, (S)-2-(3,5-Bis-trifluoromethyl-phenyl)-N-[6-(4,4-difluoro-2-hydroxymethyl-pyrrolidin-1-yl)-4-o-tolyl-pyridin-3-yl]-N-methyl-isobutyramide], for which the Ki at human NK1 receptor is 2.57 nM; in series [1] (setting [3]) it was 1.07 nM.
Taken in the same sequence, the figures for `Cc1cc(F)ccc1-c1cc(N2CC(F)(F)C[C@H]2CO)ncc1N(C)C(=O)C(C)(C)c1cc(C(F)(F)F)cc(C(F)(F)F)c1` [Example 300, (S)-2-(3,5-Bis-trifluoromethyl-phenyl)-N-[6-(4,4-difluoro-2-hydroxymethyl-pyrrolidin-1-yl)-4-(4-fluoro-2-methyl-phenyl)-pyridin-3-yl]-N-methyl-isobutyramide] were 0.955 nM and 0.49 nM.
Taken in the same sequence, the figures for `Cc1ccccc1-c1cc(N2C[C@H](F)C[C@H]2CO)ncc1N(C)C(=O)C(C)(C)c1cc(C(F)(F)F)cc(C(F)(F)F)c1` [Example 301, (2S,4R)-2-(3,5-Bis-trifluoromethyl-phenyl)-N-[6-(4-fluoro-2-hydroxymethyl-pyrrolidin-1-yl)-4-o-tolyl-pyridin-3-yl]-N-methyl-isobutyramide] were 2.14 nM and 2.29 nM.
With `CC(=O)NC[C@@H]1CCCN1c1cc(-c2ccc(F)cc2C)c(N(C)C(=O)C(C)(C)c2cc(C(F)(F)F)cc(C(F)(F)F)c2)cn1` [Example 302, (S)-N-[6-[2-(Acetylamino-methyl)-pyrrolidin-1-yl]-4-(4-fluoro-2-methyl-phenyl)-pyridin-3-yl]-2-(3,5-bis-trifluoromethyl-phenyl)-N-methyl-isobutyramide], the results for the Ki (on human NK1 receptor; in series [1] (setting [3])) were 2.51 nM and 20.4 nM, respectively.
For the compound `Cc1cc(F)ccc1-c1cc(N2CCC[C@H]2COC(=O)N(C)C)ncc1N(C)C(=O)C(C)(C)c1cc(C(F)(F)F)cc(C(F)(F)F)c1` [Example 303, (S)-Dimethyl-carbamic Acid 1-[5-{[2-(3,5-bis-trifluoromethyl-phenyl)-2-methyl-propionyl]-methyl-amino}-4-(4-fluoro-2-methyl-phenyl)-pyridin-2-yl]-pyrrolidin-2-ylmethyl Ester], the Ki at human NK1 receptor was 1.32 nM; in series [1] (setting [3]), 15.1 nM.
On to `CC(=O)N(C)C1(c2ccccc2)CCN(CCC[C@]2(c3ccc(Cl)c(Cl)c3)CCCN(C(=O)c3ccccc3)C2)CC1` [SR 142,801, Osanetant], for which the “activity on positive symptoms of schizophrenia” value in series [2] (altered behavior, delusion, hallucinations, extreme emotions, excited motor activity, incoherent speech) is on record as “active”. The “activity in the treatment of negative symptoms of schizophrenia” value in series [2] (depression, anhedonia, social isolation, memory and attention deficits) is “inactive”.
